According to patent US20230085307A1, “PYRIDAZINONE COMPOUND AND HERBICIDE” (NISSAN CHEMICAL CORPORATION, priority 2019, published 2023):

The compounds below were run on late watergrass (assay: Test Example 1: herbicidal activity, application before weed generation under submerged conditions (Table 16, symbol A)). Conditions: 320 g/ha applied herbicide.
Assay type: in vivo, late watergrass (Echinochloa oryzicola)
Procedure, shortened: (§1)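 Alluvial soil was flooded to 4 cm depth, weed seeds were sown mixed and 2.5-leaf rice seedlings were transplanted. On sowing day, the compound's emulsion, diluted in water to a set dose, was applied to the water surface. Plants grew at 25–30 °C and were scored 0–5 after three weeks.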

| Compound | Herbicidal effect on A: late watergrass (grade 0-5) |
| --- | --- |
| Cc1ccccc1C(=O)Oc1c(C)nn(C)c(=O)c1-c1c(-c2ccc(OC(F)F)cc2)sc2ccc(F)cc12 [2-285] | 5 (Herbicidal rate of 90% or more (almost completely withered)) |

These compounds were tested on Japanese bulrush (assay: Test Example 1: herbicidal activity, application before weed generation under submerged conditions (Table 16, symbol B)). Conditions: 320 g/ha applied herbicide.
Assay type: in vivo, Japanese bulrush (Schoenoplectus juncoides)
Procedure, shortened: as §1

| Compound | Herbicidal effect on B: Japanese bulrush (grade 0-5) |
| --- | --- |
| Cc1ccccc1C(=O)Oc1c(C)nn(C)c(=O)c1-c1c(-c2ccc(OC(F)F)cc2)sc2ccc(F)cc12 [2-285] | 3 (Herbicidal rate of 40% or more and less than 70%) |

The compounds below were run on late watergrass (assay: Test Example 2: herbicidal activity, application during weed generation under submerged conditions (Table 17, symbol A)). Conditions: AAH 320 g/ha; application during weed generation, submerged conditions.
Assay type: in vivo, late watergrass (Echinochloa oryzicola)
Procedure, shortened: (§2)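 3-wk visual-criteria score after one water-surface dose. Emulsion formulation, water-diluted to set rate; applied at 1–2 leaf stage; alluvial soil, 4 cm standing water; seeds co-sown; greenhouse 25–30° C.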

| Compound | herbicidal effect rating, A: late watergrass |
| --- | --- |
| Cc1ccccc1C(=O)Oc1c(C)nn(C)c(=O)c1-c1c(-c2ccc(OC(F)F)cc2)sc2ccc(F)cc12 [2-285] | 3 (Herbicidal rate of 40% or more and less than 70%) |

These compounds were tested on oval-leafed pondweed (assay: Test Example 2: herbicidal activity, application during weed generation under submerged conditions (Table 17, symbol C)). Conditions: AAH 320 g/ha; application during weed generation, submerged conditions.
Assay type: in vivo, oval-leafed pondweed (Monochoria vaginalis)
Procedure, shortened: as §2

| Compound | herbicidal effect rating, C: oval-leafed pondweed |
| --- | --- |
| Cc1ccccc1C(=O)Oc1c(C)nn(C)c(=O)c1-c1c(-c2ccc(OC(F)F)cc2)sc2ccc(F)cc12 [2-285] | 0 (Herbicidal rate of 5% or less (almost no effect)) |

These compounds were tested on barnyard grass (assay: Test Example 3: herbicidal effect by foliage application, Wagner pot (Table 18, symbol H)). Conditions: amount of applied herbicide 320 g/ha.
Assay type: in vivo, barnyard grass (Echinochloa crus-galli)
Procedure, shortened: (§3)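 Plants were sown in alluvial soil held under 0.1–0.5 cm standing water and grown 14 days in a greenhouse at 25–30 °C. An emulsifiable formulation, water-diluted to the set dose, was then sprayed onto the foliage, and effects were scored three weeks later using previously defined criteria.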

| Compound | herbicidal effect on H: barnyard grass |
| --- | --- |
| Cc1ccccc1C(=O)Oc1c(C)nn(C)c(=O)c1-c1c(-c2ccc(OC(F)F)cc2)sc2ccc(F)cc12 [2-285] | 5 (Herbicidal rate of 90% or more (almost completely withered)) |

Each compound was assayed on Chinese sprangletop (assay: Test Example 3: herbicidal effect by foliage application, Wagner pot (Table 18, symbol D)). Conditions: amount of applied herbicide 320 g/ha.
Assay type: in vivo, chinese sprangletop (Leptochloa chinensis)
Procedure, shortened: as §3

| Compound | herbicidal effect on D: Chinese sprangletop |
| --- | --- |
| Cc1ccccc1C(=O)Oc1c(C)nn(C)c(=O)c1-c1c(-c2ccc(OC(F)F)cc2)sc2ccc(F)cc12 [2-285] | 3 (Herbicidal rate of 40% or more and less than 70%) |

Each compound was assayed on rice flat sedge (assay: Test Example 3: herbicidal effect by foliage application, Wagner pot (Table 18, symbol E)). Conditions: amount of applied herbicide 320 g/ha.
Assay type: in vivo, rice flat sedge (Cyperus iria)
Procedure, shortened: as §3

| Compound | herbicidal effect on E: rice flat sedge |
| --- | --- |
| Cc1ccccc1C(=O)Oc1c(C)nn(C)c(=O)c1-c1c(-c2ccc(OC(F)F)cc2)sc2ccc(F)cc12 [2-285] | 5 (Herbicidal rate of 90% or more (almost completely withered)) |

What follows are compounds tested on Italian ryegrass (assay: Test Example 4: herbicidal effect by soil treatment (Table 19, symbol K)). Conditions: amount of applied herbicide 320 g/ha.
Assay type: in vivo, Italian ryegrass (Lolium multiflorum)
Procedure, shortened: (§4)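 In this soil treatment, the formulated compound reached the seeds only through the soil: seeds were buried about 1.5 cm deep in sterilized diluvial soil, then the diluted emulsion was sprayed over the surface. After three weeks at 25° C. to 30° C. in a greenhouse, effects were graded on criteria from an earlier test.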

| Compound | herbicidal effect on K: Italian ryegrass |
| --- | --- |
| Cc1ccccc1C(=O)Oc1c(C)nn(C)c(=O)c1-c1c(-c2ccc(OC(F)F)cc2)sc2ccc(F)cc12 [2-285] | 2 (Herbicidal rate of 20% or more and less than 40%) |

The compounds below were run on windgrass (assay: Test Example 4: herbicidal effect by soil treatment (Table 19, symbol L)). Conditions: amount of applied herbicide 320 g/ha.
Assay type: in vivo, windgrass (Apera spica-venti)
Procedure, shortened: as §4

| Compound | herbicidal effect on L: windgrass |
| --- | --- |
| Cc1ccccc1C(=O)Oc1c(C)nn(C)c(=O)c1-c1c(-c2ccc(OC(F)F)cc2)sc2ccc(F)cc12 [2-285] | 0 (Herbicidal rate of 5% or less (almost no effect)) |

What follows are compounds tested on redroot pigweed (assay: Test Example 4: herbicidal effect by soil treatment (Table 19, symbol N)). Conditions: amount of applied herbicide 320 g/ha.
Assay type: in vivo, redroot pigweed (Amaranthus retroflexus)
Procedure, shortened: as §4

| Compound | herbicidal effect on N: redroot pigweed |
| --- | --- |
| Cc1ccccc1C(=O)Oc1c(C)nn(C)c(=O)c1-c1c(-c2ccc(OC(F)F)cc2)sc2ccc(F)cc12 [2-285] | 0 (Herbicidal rate of 5% or less (almost no effect)) |

What follows are compounds tested on green foxtail (assay: Test Example 5: herbicidal effect by foliage application, plastic box (Table 20, symbol G)). Conditions: foliage application, AAH 320 g/ha, evaluated three weeks after application.
Assay type: in vivo, green foxtail (Setaria viridis)
Procedure, shortened: (§5)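 Plants were sown into sterilized diluvial soil under about 1.5 cm cover and kept in a greenhouse at 25° C. to 30° C. Fourteen days on, foliage received an even spray of the diluted emulsion. Herbicidal or crop effect was judged three weeks afterwards.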

| Compound | G: green foxtail, herbicidal effect (criteria 0-5) |
| --- | --- |
| Cc1ccccc1C(=O)Oc1c(C)nn(C)c(=O)c1-c1c(-c2ccc(OC(F)F)cc2)sc2ccc(F)cc12 [2-285] | 3 (Herbicidal rate of 40% or more and less than 70%) |

The compounds below were run on barnyard grass (assay: Test Example 5: herbicidal effect by foliage application, plastic box (Table 20, symbol H)). Conditions: foliage application, AAH 320 g/ha, evaluated three weeks after application.
Assay type: in vivo, barnyard grass (Echinochloa crus-galli)
Procedure, shortened: as §5

| Compound | H: barnyard grass, herbicidal effect (criteria 0-5) |
| --- | --- |
| Cc1ccccc1C(=O)Oc1c(C)nn(C)c(=O)c1-c1c(-c2ccc(OC(F)F)cc2)sc2ccc(F)cc12 [2-285] | 4 (Herbicidal rate of 70% or more and less than 90%) |

What follows are compounds tested on wild oat (assay: Test Example 5: herbicidal effect by foliage application, plastic box (Table 20, symbol I)). Conditions: foliage application, AAH 320 g/ha, evaluated three weeks after application.
Assay type: in vivo, wild oat (Avena fatua)
Procedure, shortened: as §5

| Compound | I: wild oat, herbicidal effect (criteria 0-5) |
| --- | --- |
| Cc1ccccc1C(=O)Oc1c(C)nn(C)c(=O)c1-c1c(-c2ccc(OC(F)F)cc2)sc2ccc(F)cc12 [2-285] | 1 (Herbicidal rate of 5% or more and less than 20%) |

These compounds were tested on blackgrass (assay: Test Example 5: herbicidal effect by foliage application, plastic box (Table 20, symbol J)). Conditions: foliage application, AAH 320 g/ha, evaluated three weeks after application.
Assay type: in vivo, blackgrass (Alopecurus myosuroides)
Procedure, shortened: as §5

| Compound | J: blackgrass, herbicidal effect (criteria 0-5) |
| --- | --- |
| Cc1ccccc1C(=O)Oc1c(C)nn(C)c(=O)c1-c1c(-c2ccc(OC(F)F)cc2)sc2ccc(F)cc12 [2-285] | 4 (Herbicidal rate of 70% or more and less than 90%) |

The compounds below were run on Italian ryegrass (assay: Test Example 5: herbicidal effect by foliage application, plastic box (Table 20, symbol K)). Conditions: foliage application, AAH 320 g/ha, evaluated three weeks after application.
Assay type: in vivo, Italian ryegrass (Lolium multiflorum)
Procedure, shortened: as §5

| Compound | K: Italian ryegrass, herbicidal effect (criteria 0-5) |
| --- | --- |
| Cc1ccccc1C(=O)Oc1c(C)nn(C)c(=O)c1-c1c(-c2ccc(OC(F)F)cc2)sc2ccc(F)cc12 [2-285] | 4 (Herbicidal rate of 70% or more and less than 90%) |

These compounds were tested on redroot pigweed (assay: Test Example 5: herbicidal effect by foliage application, plastic box (Table 20, symbol N)). Conditions: foliage application, AAH 320 g/ha, evaluated three weeks after application.
Assay type: in vivo, redroot pigweed (Amaranthus retroflexus)
Procedure, shortened: as §5

| Compound | N: redroot pigweed, herbicidal effect (criteria 0-5) |
| --- | --- |
| Cc1ccccc1C(=O)Oc1c(C)nn(C)c(=O)c1-c1c(-c2ccc(OC(F)F)cc2)sc2ccc(F)cc12 [2-285] | 5 (Herbicidal rate of 90% or more (almost completely withered)) |
